Values quoted from earlier work as cited in US20120077687A1, “PROGNOSTIC AND PREDICTIVE GENE SIGNATURE FOR NON-SMALL CELL LUNG CANCER AND ADJUVANT CHEMOTHERAPY” (priority 2010, published 2012).
Like-named read-outs stand apart in the source and are kept apart here.

Key:
[1] = system: non-small cell lung cancer (NSCLC) patients; conditions: for HR (survival): LACE meta-analysis
[2] = system: stage IB NSCLC patients; conditions: 344 stage IB patients, chemotherapy vs observation

Row | Compound | 5-year survival advantage conferred by adjuvant chemotherapy ([1]; ANITA trial, 840 stage IB-IIIA patients) [%] | 5-year survival advantage conferred by adjuvant chemotherapy ([1]; IALT, 1,867 stage I-III patients) [%] | absolute survival advantage at 5-year ([1]; LACE meta-analysis of 5 cisplatin-based trials) [%] | HR (survival) ([1]; all patients, 95% CI 0.82-0.96, p=0.004) | HR (survival) ([1]; stage IA patients, 95% CI 0.96-2.09, detriment suggested) | HR (survival) ([1]; stage IB patients, 95% CI 0.78-1.10, no significant benefit) | 5-year survival advantage conferred by adjuvant chemotherapy ([1]; NCIC CTG BR.10 Trial, 483 stage IB-II patients) [%] | HR, disease-free survival ([2]; p=0.065) | HR, overall survival ([2]; p=0.12)
1 | N.N.[Cl][Pt][Cl] [cisplatin] | 9 | 4 | 5.3 | 0.89 | 1.41 | 0.92 | 15 | – | –
2 | carboplatin and paclitaxel | – | – | – | – | – | – | – | 0.80 | 0.83
